These molecules were tested against substance P receptor (Homo sapiens, UniProt P25103) (assay: Radioligand receptor binding inhibitory assay using receptor from human lymphoblast cells (IM-9), 125I-BHSP). Conditions: IM-9 receptor, 25° C., 30 minutes.
Method: The method of A. Margaret et al. [Molecular Pharmacology 42, 458 (1992)] was modified and used. The receptor was prepared from human lymphoblast cells (IM-9). IM-9 cells were grown in 175 cm^2 tissue culture flasks (100 ml×10) at a density approximately 2×10^5 /ml of RPMI 1640 with L-glutamine, 10% (V/V) heat inactivated fetal calf serum, penicillin (100 u/ml), and streptomycin (100 μg/ml) at 37° C. in 5% CO2 /95% air for 3 days. IM-9 cells were obtained by centrifugation at 500×g for 5 minutes at 5° C. The pellet obtained was washed once with phosphate buffer (Flow Laboratories, CAT No. 28-103-05), homogenized using Polytron homogenizer (Kinematika, Germany) in 30 ml of 50 mM Tris-HCl buffer containing 120 mM NaCl, 5 mM KCl, 2 μg/ml phenylmethyl sulfonyl fluoride, and 1 mM ethylenediamine tetra-acetic acid and then centrifuged at 40,000×g for 20 minutes. The residue was washed twice with 30 ml of buffer described above, and preserved frozen (-80° C.).
The above specimen was suspended in a reaction buffer (50 mM Tris-HCl buffer (pH 7.4), 0.02% bovine serum albumin, 1 mM phenylmethylsulfonyl fluoride, 2 μg/ml chymostatin, 40 μg/ml bacitracin, 3 mM manganese chloride) at a protein concentration of 1.5 mg/ml and a 100 μl portion of the suspension was used in the reaction. After addition of the sample and 125I-BHSP (0.46 KBq), the reaction was conducted in 0.2 ml of reaction buffer at 25° C. for 30 minutes. The amount of nonspecific binding was determined by adding substance P at a final concentration of 2×10^-6 M. After the reaction, using a cell harvester (290PHD, Cambridge Technology, Inc., England), rapid filtration was carried out through a glass filter (GF/B, Whatman, U.S.A.) to stop the reaction. After washing three times with 250 μl of 50 mM Tris-HCl buffer (pH 7.4) containing 0.02% bovine serum albumin, the radioactivity remaining on the filter was measured with a gamma counter. Before use, the filter was immersed in 0.1% polyethyleneimine for 24 hours and air-dried.

substance P receptor, sequence (P25103 whole entry): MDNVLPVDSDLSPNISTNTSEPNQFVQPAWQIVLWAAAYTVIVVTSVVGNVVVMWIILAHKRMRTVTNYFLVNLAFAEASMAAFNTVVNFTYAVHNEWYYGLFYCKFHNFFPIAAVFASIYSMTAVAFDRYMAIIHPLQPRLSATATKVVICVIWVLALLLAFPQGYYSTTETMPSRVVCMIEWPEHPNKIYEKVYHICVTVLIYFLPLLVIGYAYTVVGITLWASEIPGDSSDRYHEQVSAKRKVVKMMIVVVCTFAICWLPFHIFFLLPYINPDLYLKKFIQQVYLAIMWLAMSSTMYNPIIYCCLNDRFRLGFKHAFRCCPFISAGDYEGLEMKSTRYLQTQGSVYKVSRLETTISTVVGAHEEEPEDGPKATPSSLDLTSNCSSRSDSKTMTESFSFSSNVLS

SMILES	IC50 [nM]
CN(Cc1cc(C(F)(F)F)cc(C(F)(F)F)c1)C(=O)c1c(-c2ccccc2Cl)c2ccccc2n(C)c1=O [Example 262, N-[3,5-Bis(trifluoromethyl)benzyl]-4-(2-chlorophenyl)-1,2-dihydro-N,1-dimethyl-2-oxo-3-quinolinecarboxamide]	2
CN(Cc1cc(C(F)(F)F)cc(C(F)(F)F)c1)C(=O)c1oc(=O)c2ccccc2c1-c1ccccc1 [Example 243, N-[3,5-Bis(trifluoromethyl)benzyl]-N-methyl-1-oxo-4-phenyl-1H-2-benzopyran-3-carboxamide]	0.9
Cc1cc(C)cc(COCc2c(-c3ccccc3)c3cc(C)c(C)cc3c(=O)n2C)c1 [Example 208, 1,2-Dihydro-2,6,7-trimethyl-1-oxo-4-phenyl-3-isoquinolinemethyl 3,5-dimethylbenzyl ether]	140
CN(Cc1cc(C(F)(F)F)cc(C(F)(F)F)c1)C(=O)c1c(-c2ccccc2)c2ccccc2c(=O)n1C [Example 157, N-[3,5-Bis(trifluoromethyl)benzyl]-1,2-dihydro-N,2-dimethyl-1-oxo-4-phenyl-3-isoquinolinecarboxamide]	1.2
CN(Cc1cc(C(F)(F)F)cc(C(F)(F)F)c1)C(=O)c1c(-c2ccccc2)c2ccccc2c(=S)n1C [Example 285, N-[3,5-Bis(trifluoromethyl)benzyl]-1,2-dihydro-N,2-dimethyl-4-phenyl-1-thioxo-3-isoquinolinecarboxamide]	9.4
COc1cccc(CNC(=O)c2c(-c3ccccc3)c3cc(C)c(C)cc3c(=O)n2C)c1 [Example 128, 1,2-Dihydro-N-(3-methoxybenzyl)-2,6,7-trimethyl-1-oxo-4-phenyl-3-isoquinolinecarboxamide]	88
Cc1cc(C)cc(CNCc2c(-c3ccccc3)c3cc(C)c(C)cc3c(=O)n2C)c1 [Example 191, N-(3,5-Dimethylbenzyl)-1,2-dihydro-2,6,7-trimethyl-1-oxo-4-phenyl-3-isoquinolinemethylamine]	28
CCOC(=O)CCn1c(C(=O)NCc2cc(C(F)(F)F)cc(C(F)(F)F)c2)c(-c2ccccc2)c2ccccc2c1=O [Example 179, N-[3,5-Bis(trifluoromethyl)benzyl]-2-(2-ethoxycarbonylethyl)-1,2-dihydro-1-oxo-4-phenyl-3-isoquinolinecarboxamide]	80
CNc1nc(C(=O)N(C)Cc2cc(C(F)(F)F)cc(C(F)(F)F)c2)c(-c2ccccc2)c2ccccc12 [Example 278, N-[3,5-Bis(trifluoromethyl)benzyl]-N-methyl-1-methylamino-4-phenyl-3-isoquinolinecarboxamide]	10
CCc1ccccc1-c1c(COCc2cc(C(F)(F)F)cc(C(F)(F)F)c2)n(C)c(=O)c2ccccc12 [Example 216, 3,5-Bis(trifluoromethyl)benzyl 4-(2-ethylphenyl)-1,2-dihydro-2-methyl-1-oxo-3-isoquinolinemethyl ether]	62
Cc1ccccc1-c1c(C(=O)N(C)Cc2ccccc2Cl)n(C)c(=O)c2ccccc12 [Example 105, N-(2-Chlorobenzyl)-1,2-dihydro-N,2-dimethyl-4-(2-methylphenyl)-1-oxo-3-isoquinolinecarboxsmide]	19
Cc1ccccc1-c1c(COCc2cc(C(F)(F)F)cc(C(F)(F)F)c2)n(C)c(=O)c2ccccc12 [Example 212, 3,5-Bis(trifluoromethyl)benzyl 1,2-dihydro-2-methyl-4-(2-methylphenyl)-1-oxo-3-isoquinoline methyl ether]	30
COc1ccccc1CNCc1c(-c2ccccc2)c2cc(C)c(C)cc2c(=O)n1C [Example 190, 1,2-Dihydro-N-(2-methoxybenzyl)-2,6,7-trimethyl-1-oxo-4-phenyl-3-isoquinolinemethylamine]	13
Cc1cc2c(-c3ccccc3)c(C(=O)NCc3ccccc3Cl)n(C)c(=O)c2cc1C [Example 131, N-(2-Chlorobenzyl)-1,2-dihydro-2,6,7-trimethyl-1-oxo-4-phenyl-3-isoquinolinecarboxamide]	86
Cc1nc2ccccc2c(-c2ccccc2)c1C(=O)NCc1cc(C(F)(F)F)cc(C(F)(F)F)c1 [Example 266, N-[3,5-Bis(trifluoromethyl)benzyl]-2-methyl-4-phenyl-3-quinolinecarboxamide]	8.2
Cn1c(C(=O)NCc2cc(C(F)(F)F)cc(C(F)(F)F)c2)c(-c2ccccc2C(F)(F)F)c2ccccc2c1=O [Example 181, N-[3,5-Bis(trifluoromethyl)benzyl]-1,2-dihydro-2-methyl-1-oxo-4-(2-trifluoromethylphenyl)-3-isoquinolinecarboxamide]	31
CN(Cc1cc(C(F)(F)F)cc(C(F)(F)F)c1)C(=O)c1ncc2ccccc2c1-c1ccccc1 [Example 276, N-[3,5-Bis(trifluoromethyl)benzyl]-N-methyl-4-phenyl-3-isoquinolinecarboxamide]	3
COc1ccccc1-c1c(C(=O)NCc2cc(C(F)(F)F)cc(C(F)(F)F)c2)n(C)c(=O)c2ccccc12 [Example 158, N-[3,5-Bis(trifluoromethyl)benzyl]-1,2-dihydro-4-(2-methoxyphenyl)-2-methyl-1-oxo-3-isoquinolinecarboxamide]	78
COc1ccccc1-c1c(C(=O)N(C)Cc2cc(C(F)(F)F)cc(C(F)(F)F)c2)n(C)c(=O)c2ccccc12 [Example 159, N-[3,5-Bis(trifluoromethyl)benzyl]-1,2-dihydro-4-(2-methoxyphenyl)-N,2-dimethyl-1-oxo-3-isoquinolinecarboxamide]	12
CN(Cc1cc(C(F)(F)F)cc(C(F)(F)F)c1)C(=O)[C@H]1[C@H](c2ccc(F)cc2)c2ccccc2C(=O)N1C (relative stereo) [Example 280, 3,4-trans-N-[3,5-Bis(trifluoromethyl)benzyl]-4-(4-fluorophenyl)-1,2,3,4-tetrahydro-N,2-dimethyl-1-oxo-3-isoquinolinecarboxamide]	58
CN(Cc1cc(C(F)(F)F)cc(C(F)(F)F)c1)C(=O)c1c(-c2ccccc2)c2ccccc2[nH]c1=O [Example 258, N-[3,5-Bis(trifluoromethyl)benzyl]-1,2-dihydro-N-methyl-2-oxo-4-phenyl-3-quinolinecarboxamide]	3.1
Cc1ccc(CNC(=O)c2c(-c3ccccc3)c3cc(C)c(C)cc3c(=O)n2C)cc1 [Example 127, 1,2-Dihydro-2,6,7-trimethyl-N-(4-methylbenzyl)-1-oxo-4-phenyl-3-isoquinolinecarboxamide]	8.8
CN(Cc1cc(C(F)(F)F)cc(C(F)(F)F)c1)C(=O)c1c(-c2ccccc2)c2c(c(=O)n1C)CCCC2 [Example 186, N-[3,5-Bis(trifluoromethyl)benzyl]-1,2,5,6,7,8-hexahydro-N-2-dimethyl-1-oxo-4-phenyl-3-isoquinolinecarboxamide]	1.8
CN(Cc1cc(C(F)(F)F)cc(C(F)(F)F)c1)C(=O)c1ncc2ccccc2c1-c1ccc(F)cc1 [Example 274, N-[3,5-Bis(trifluoromethyl)benzyl]-4-(4-fluorophenyl)-N-methyl-3-isoquinolinecarboxamide]	2.3
CN(Cc1cc(C(F)(F)F)cc(C(F)(F)F)c1)C(=O)c1c(-c2ccc(F)cc2)c2ccccc2c(=O)n1C [Example 166, N-[3,5-Bis(trifluoromethyl)benzyl]-4-(4-fluorophenyl)-1,2-dihydro-N,2-dimethyl-1-oxo-3-isoquinolinecarboxamide]	0.35

Source: patent US5482967A, “Condensed heterocyclic compounds, their production and use” (Takeda Chemical Industries, Ltd., priority 1992, dated 1996)
